Values of other authors, collected in patent publication US6767507B1, “Uncomplexed cyclodextrin compositions for odor control” (The Procter & Gamble Company, priority 1998, dated 2004).

Conditions: not given

| Structure (SMILES) | solubility in water |
| --- | --- |
| ClC=CC[N+]12CN3CN(CN(C3)C1)C2.[Cl-] [Dowicil 200, 1-(3-Chlorallyl)-3,5,7-triaza-1-azoniaadamantane chloride] | freely soluble in water |

Same assay, conditions: in water

| water solubility | Structure (SMILES) |
| --- | --- |
| about 2.67% | OCCOc1ccccc1 [2-phenoxyethanol] |
| about 2% | OCCc1ccccc1 [2-phenylethanol] |
| about 0.46% | O=[N+]([O-])C1(Br)COCOC1 [Bronidox L, 5-bromo-5-nitro-1,3-dioxane] |
| more than 50% | CC1(C)C(=O)N(CO)C(=O)N1CO [DMDM hydantoin, 1,3-bis(hydroxymethyl)-5,5-dimethyl-2,4-imidazolidinedione] |
| about 4% | OCc1ccccc1 [benzyl alcohol] |
| about 1.8% | [H]/N=C(\N/C(=N/[H])NCCCCCCNC(=N)NC(=N)Nc1ccc(Cl)cc1)Nc1ccc(Cl)cc1 [chlorhexidine diacetate, 1,1′-hexamethylene bis(5-(p-chlorophenyl)biguanide), reference compound] |
| about 70% | [H]/N=C(\N/C(=N/[H])NCCCCCCNC(=N)NC(=N)Nc1ccc(Cl)cc1)Nc1ccc(Cl)cc1 [chlorhexidine digluconate, 1,1′-hexamethylene bis(5-(p-chlorophenyl)biguanide), reference compound] |
| about 0.8% | CC(C)(O)C(Cl)(Cl)Cl [chlorobutanol, 1,1,1-Trichloro-2-methylpropan-2-ol] |

| Structure (SMILES) | water solubility |
| --- | --- |
| [Na+].[O-][n+]1ccccc1[S-] [sodium pyrithione] | about 50% |
